# Results as given in patent US20050112573A1, “Method of detecting toxic substance” (priority 2001, published 2005).
# Test system: yeast genes (level of expressed mRNA)
# Experiment: DNA chip analysis of expressed mRNA of yeast genes after 2 h culture with a toxic chemical substance
# Type: cell-based, Saccharomyces cerevisiae S288C
# Details: for The level of expressed mRNA in the presence of chemical substance/ (ratio to absence of chemical substance): stress protein genes, DNA chip; for The level of expressed mRNA in the presence of chemical substance/ in its absence, gene YPR184W: yeast gene YPR184W
# Description: Yeast (Saccharomyces cerevtisiae S288C (α SUC2mal mel gap2 CUP1)) were cultured at 25° C. on YPD medium (yeast extract 1%, polypepton 2%, glucose 2%). One of toxic chemical substances was added to the cell at logarithmic growth phase, and the cell was further cultured for two hours. Cell was cultured without any chemical substance in the same condition, and was used as control. Concentrations of the chemical substances were defined to inhibit the growth of the yeast but not lead to death.
# After the completion of cultivation, the culture was centrifuged to collect the cells. To the cells, sodium acetate buffer (50 mM sodium acetate, 10 mM EDTA, 1% SDS) was added, and the mixture was shaken at 65° C. for five minutes, followed by returning to room temperature, and obtaining the supernatant, which procedure was repeated two times. To the supernatant, ½ amount of a solution of phenol/chloroform was added, and the mixture was centrifuged to give a supernatant, which was added with an equal amount of chloroform, and the mixture was centrifuged to give a supernatant. To the supernatant, an equal amount of isopropanol containing 0.3 M sodium acetate was added, and the mixture was allowed to stand at room temperature for 30 minutes, after which the mixture was centrifuged to give a sediment of the whole RNAs. Seventy % ethanol was added to the sediment, and the mixture was again centrifuged to give a sediment, which was then dried and dissolved in water. mRNA was isolated from the whole RNAs as followings. In view of the fact that a poly A chain is attached to the 3′ terminus of mRNA, a polynucleotide having a poly T structure which was immobilized on the surface of latex beads was used to trap the mRNA, and then the mRNA was washed and eluted with spine column (Oligotex-dT30<Super>mRNA Purification Kit, Takara). Reverse transcription of the mRNA was conducted with a reverse transcriptase (Super Script II Reverse Transcriptase; catalogue No. 18064-014, GibcoBRL) using fluorescence-labeled nucleotides to give cDNAs that were introduced with Cy3-dUTP or Cy5-dUTP during the reverse transcription.
# The labeled cDNAs were dissolved in TE buffer (10 mM Tris-HCl/1 mM EDTA, pH8.0), and the solution was dropped on the DNA chip containing the whole genes of yeast (DNA Chip Research Inc. Japan) so that the cDNAs were hybridized on the DNA chip at 65° C. for over 12 hours. The fluoresces intensity of the DNA chip was read with a scanner, and the ratio relative to the fluorescence intensity resulting from the absence of chemical substance was estimated as the following, which is shown in Tables 1 to 9: [formula]
# In the Tables, “Intensity” indicated in the rightmost column is a value of the level of expressed mRNA of each gene in control cells as divided by the average level of the expressions of the whole genes.
structure (smiles),measurement,setting,value
"CCCCCCCCCCCCOS(=O)(=O)[O-].[Na+] [(18), sodium lauryl sulfate]",The level of expressed mRNA in the presence of chemical substance/The level of expressed mRNA in the absence of chemical substance,yeast gene YNL006W,1.3
same,The level of expressed mRNA in the presence of chemical substance/The level of expressed mRNA in the absence of chemical substance,yeast gene YNL007C,1.0
same,"The level of expressed mRNA in the presence of chemical substance/ (in its absence), gene YNL025C","yeast gene YNL025C, ratio of DNA chip fluorescence intensity to that without chemical substance",1.3
same,The level of expressed mRNA in the presence of chemical substance/ (ratio to absence of chemical substance),yeast gene YNL064C,0.7
same,"The level of expressed mRNA in the presence of chemical substance/ (ratio to absence), gene YNL073W","yeast gene YNL073W, mitochondria-located protein genes, 2 h culture with chemical",1.0
same,The level of expressed mRNA in the presence of chemical substance/The level of expressed mRNA in the absence of chemical substance,yeast gene YNL093W,3.1
same,"The level of expressed mRNA in the presence of chemical substance/ (in its absence), gene YNL192W","yeast gene YNL192W, ratio of DNA chip fluorescence intensity to that without chemical substance",2.8
same,The level of expressed mRNA in the presence of chemical substance/The level of expressed mRNA in the absence of chemical substance,yeast gene YNL333W,1.1
same,The level of expressed mRNA in the presence of chemical substance/The level of expressed mRNA in the absence of chemical substance,yeast gene YNR010W,2.3
same,The level of expressed mRNA in the presence of chemical substance/The level of expressed mRNA in the absence of chemical substance,yeast gene YNR069C,0.9
same,"The level of expressed mRNA in the presence of chemical substance/ (in its absence), gene YNR072W","yeast gene YNR072W, ratio of DNA chip fluorescence intensity to that without chemical substance",1.0
same,The level of expressed mRNA in the presence of chemical substance/ (ratio to absence of chemical substance),yeast gene YNR076W,0.8
same,The level of expressed mRNA in the presence of chemical substance/The level of expressed mRNA in the absence of chemical substance,yeast gene YOL013C,1.4
same,"The level of expressed mRNA in the presence of chemical substance/ (ratio to absence), gene YOL096C","yeast gene YOL096C, mitochondria-located protein genes, 2 h culture with chemical",1.2
same,"The level of expressed mRNA in the presence of chemical substance/ (in its absence), gene YOL096C","yeast gene YOL096C, ratio of DNA chip fluorescence intensity to that without chemical substance",1.2
same,"The level of expressed mRNA in the presence of chemical substance/ (in its absence), gene YOL108C","yeast gene YOL108C, ratio of DNA chip fluorescence intensity to that without chemical substance",2.7
same,"The level of expressed mRNA in the presence of chemical substance/ (in its absence), gene YOL116W","yeast gene YOL116W, ratio of DNA chip fluorescence intensity to that without chemical substance",1.4
same,The level of expressed mRNA in the presence of chemical substance/ (ratio to absence of chemical substance),yeast gene YOL161C,1.0
same,The level of expressed mRNA in the presence of chemical substance/The level of expressed mRNA in the absence of chemical substance,yeast gene YOL164W,1.3
same,The level of expressed mRNA in the presence of chemical substance/ (ratio to absence of chemical substance),yeast gene YOR008C,1.3
same,The level of expressed mRNA in the presence of chemical substance/ (ratio to absence of chemical substance),yeast gene YOR009W,0.8
same,The level of expressed mRNA in the presence of chemical substance/ (ratio to absence of chemical substance),yeast gene YOR010C,0.6
same,The level of expressed mRNA in the presence of chemical substance/The level of expressed mRNA in the absence of chemical substance,yeast gene YOR036W,1.7
same,"The level of expressed mRNA in the presence of chemical substance/ (in its absence), gene YOR103C","yeast gene YOR103C, ratio of DNA chip fluorescence intensity to that without chemical substance",1.5
same,The level of expressed mRNA in the presence of chemical substance/The level of expressed mRNA in the absence of chemical substance,yeast gene YOR117W,0.9
same,The level of expressed mRNA in the presence of chemical substance/The level of expressed mRNA in the absence of chemical substance,yeast gene YOR124C,1.0
same,The level of expressed mRNA in the presence of chemical substance/The level of expressed mRNA in the absence of chemical substance,yeast gene YOR132W,1.6
same,The level of expressed mRNA in the presence of chemical substance/The level of expressed mRNA in the absence of chemical substance,yeast gene YOR157C,1.2
same,"The level of expressed mRNA in the presence of chemical substance/ (in its absence), gene YOR180C","yeast gene YOR180C, ratio of DNA chip fluorescence intensity to that without chemical substance",2.3
same,The level of expressed mRNA in the presence of chemical substance/The level of expressed mRNA in the absence of chemical substance,yeast gene YOR181W,0.6
same,The level of expressed mRNA in the presence of chemical substance/The level of expressed mRNA in the absence of chemical substance,yeast gene YOR185C,1.1
same,The level of expressed mRNA in the presence of chemical substance/The level of expressed mRNA in the absence of chemical substance,yeast gene YOR198C,1.5
same,"The level of expressed mRNA in the presence of chemical substance/ (in its absence), gene YOR251C","yeast gene YOR251C, ratio of DNA chip fluorescence intensity to that without chemical substance",1.3
same,The level of expressed mRNA in the presence of chemical substance/The level of expressed mRNA in the absence of chemical substance,yeast gene YOR259C,1.5
same,The level of expressed mRNA in the presence of chemical substance/The level of expressed mRNA in the absence of chemical substance,yeast gene YOR261C,1.9
same,The level of expressed mRNA in the presence of chemical substance/The level of expressed mRNA in the absence of chemical substance,yeast gene YOR288C,1.6
same,"The level of expressed mRNA in the presence of chemical substance/ (ratio to absence), gene YOR316C","yeast gene YOR316C, mitochondria-located protein genes, 2 h culture with chemical",1.0
same,"The level of expressed mRNA in the presence of chemical substance/ (in its absence), gene YOR348C","yeast gene YOR348C, ratio of DNA chip fluorescence intensity to that without chemical substance",0.9
same,The level of expressed mRNA in the presence of chemical substance/The level of expressed mRNA in the absence of chemical substance,yeast gene YOR355W,0.9
same,"The level of expressed mRNA in the presence of chemical substance/ (in its absence), gene YOR363C","yeast gene YOR363C, ratio of DNA chip fluorescence intensity to that without chemical substance",1.8
same,The level of expressed mRNA in the presence of chemical substance/The level of expressed mRNA in the absence of chemical substance,yeast gene YOR383C,1.1
same,"The level of expressed mRNA in the presence of chemical substance/ (ratio to absence), gene YPL040C","yeast gene YPL040C, mitochondria-located protein genes, 2 h culture with chemical",1.1
same,The level of expressed mRNA in the presence of chemical substance/ (ratio to absence of chemical substance),yeast gene YPL059W,1.3
same,The level of expressed mRNA in the presence of chemical substance/The level of expressed mRNA in the absence of chemical substance,yeast gene YPL089C,1.1
same,The level of expressed mRNA in the presence of chemical substance/The level of expressed mRNA in the absence of chemical substance,yeast gene YPL109C,1.2
same,"The level of expressed mRNA in the presence of chemical substance/ (ratio to absence), gene YPL134C","yeast gene YPL134C, mitochondria-located protein genes, 2 h culture with chemical",1.3
same,The level of expressed mRNA in the presence of chemical substance/ (ratio to absence of chemical substance),yeast gene YPL140C,1.4
same,"The level of expressed mRNA in the presence of chemical substance/ (in its absence), gene YPL148C","yeast gene YPL148C, ratio of DNA chip fluorescence intensity to that without chemical substance",1.1
same,The level of expressed mRNA in the presence of chemical substance/The level of expressed mRNA in the absence of chemical substance,yeast gene YPL149W,2.9
same,The level of expressed mRNA in the presence of chemical substance/The level of expressed mRNA in the absence of chemical substance,yeast gene YPL154C,2.0
same,The level of expressed mRNA in the presence of chemical substance/ (ratio to absence of chemical substance),yeast gene YPL194W,0.8
same,The level of expressed mRNA in the presence of chemical substance/ (ratio to absence of chemical substance),yeast gene YPR005C,1.1
same,The level of expressed mRNA in the presence of chemical substance/The level of expressed mRNA in the absence of chemical substance,yeast gene YPR103W,1.5
same,The level of expressed mRNA in the presence of chemical substance/The level of expressed mRNA in the absence of chemical substance,yeast gene YPR108W,1.3
same,"The level of expressed mRNA in the presence of chemical substance/ (in its absence), gene YPR165W","yeast gene YPR165W, ratio of DNA chip fluorescence intensity to that without chemical substance",2.7
same,"The level of expressed mRNA in the presence of chemical substance/ in its absence, gene YPR184W","energy system protein genes, 2 h culture with the chemical, ratio to control without chemical",1.7
same,"The level of expressed mRNA in the presence of chemical substance/ in its absence, gene YPR184W",ratio of DNA chip fluorescence intensity to that without chemical substance,1.7
